{"source": "patent US9388147B2", "about": "(Receptos, Inc., priority 2009, dated 2016)", "type_in_all_cases": "cell-based", "key": {"[1]": {"target": "T1, S1P1 W269L (Homo sapiens, UniProt P21453, W269L)", "T1 construct": "expressed in transfected cells; host or cells: CHOK1", "T1 sequence (P21453 whole entry W269L)": "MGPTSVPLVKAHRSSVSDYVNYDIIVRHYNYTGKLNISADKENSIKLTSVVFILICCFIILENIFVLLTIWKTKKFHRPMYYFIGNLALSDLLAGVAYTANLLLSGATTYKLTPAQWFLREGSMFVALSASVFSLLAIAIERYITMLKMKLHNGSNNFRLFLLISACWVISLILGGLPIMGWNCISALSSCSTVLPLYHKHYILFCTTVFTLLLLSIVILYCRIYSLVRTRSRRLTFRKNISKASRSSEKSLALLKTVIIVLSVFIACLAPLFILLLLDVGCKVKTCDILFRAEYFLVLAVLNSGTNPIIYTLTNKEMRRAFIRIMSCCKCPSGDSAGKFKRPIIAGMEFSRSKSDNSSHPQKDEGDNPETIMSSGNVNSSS", "test": "Phosphorylated-ERK1/2 In Cell Western, S1P1 W269L mutant", "description": "CHOK1 cells were transfected using Fugene (Roche). Stably expressing mixed pools were selected with 2 mg/ml G418. Expression of functional S1P1/EDG1 receptor was confirmed by cell surface FACS with a S1P1 antibody (R&D Systems, clone 218713). Stable pools were seeded at 40,000 cells/well in a clear bottom 96-well tray, and incubated at 37° C. in 5% CO2 for 18 hrs. Cells were serum-starved in FreeStyle 293 medium (Invitrogen) for 4-6 h, then incubated for 5 min with a dose response of compound, in duplicate. Cells were fixed with 4% paraformaldehyde for 20 min, permeabilized with 0.1% Triton X-100 in PBS (4×5 min washes) and blocked for 1 h in Odyssey Blocking Buffer (LI-COR). All incubations were at room temperature. Cells were incubated for 18 h at 4° C. in Rabbit anti-Phospho-ERK1/2 (Cell Signaling #4377) and Mouse anti-ERK1/2 (Cell Signaling #9107) both diluted 1:800 in Odyssey Blocking Buffer. Plates were washed with 0.1% Tween-20 in PBS and then incubated with Odyssey Blocking Buffer containing IRDye 680-labeled goat anti-rabbit antibody (#926-32221; diluted 1/500) and IRDye 800CW-labeled goat anti-mouse antibody (#926-32210; diluted 1/1000). Plates were washed with 0.1% Tween-20 in PBS, all liquid was removed from the wells and the plates were scanned using a LICOR Odyssey scanner. […] Data was analyzed by non-linear regression using GraphPad Prism to determine the EC50 of binding. […]"}, "[2]": {"target": "T2, S1P1 N101A (Homo sapiens, UniProt P21453, N101A)", "T2 construct": "expressed in transfected cells; host or cells: CHOK1", "T2 sequence (P21453 whole entry N101A)": "as the sequence (P21453 whole entry W269L) above, with N101A, L269W counted along it", "test": "Phosphorylated-ERK1/2 In Cell Western, S1P1 N101A mutant in CHOK1 cells", "description": "(§1) A. Quick-change mutagenesis with PfuTurbo DNA polymerase (Stratagene) was conducted using S1P1/pcDNA3.1 (Missouri S&T cDNA Resource Centre) as the template. Primers were as follows: […]\n(§2) PCR conditions were 15 cycles with the following parameters: 95° C. 30 sec, 58° C. 30 sec, 68° C. for 60 sec. All constructs were sequence verified.\n(§3) CHOK1 cells were transfected using Fugene (Roche). Stably expressing mixed pools were selected with 2 mg/ml G418. Expression of functional S1P1/EDG1 receptor was confirmed by cell surface FACS with a S1P1 antibody (R&D Systems, clone 218713). Stable pools were seeded at 40,000 cells/well in a clear bottom 96-well tray, and incubated at 37° C. in 5% CO2 for 18 hrs. Cells were serum-starved in FreeStyle 293 medium (Invitrogen) for 4-6 h, then incubated for 5 min with a dose response of compound, in duplicate. Cells were fixed with 4% paraformaldehyde for 20 min, permeabilized with 0.1% Triton X-100 in PBS (4×5 min washes) and blocked for 1 h in Odyssey Blocking Buffer (LI-COR). All incubations were at room temperature. Cells were incubated for 18 h at 4° C. in Rabbit anti-Phospho-ERK1/2 (Cell Signaling #4377) and Mouse anti-ERK1/2 (Cell Signaling #9107) both diluted 1:800 in Odyssey Blocking Buffer. Plates were washed with 0.1% Tween-20 in PBS and then incubated with Odyssey Blocking Buffer containing IRDye 680-labeled goat anti-rabbit antibody (#926-32221; diluted 1/500) and IRDye 800CW-labeled goat anti-mouse antibody (#926-32210; diluted 1/1000). Plates were washed with 0.1% Tween-20 in PBS, all liquid was removed from the wells and the plates were scanned using a LICOR Odyssey scanner. The phospho-ERK1/2 signal was normalized to the ERK1/2 signal. Data was analyzed by non-linear regression using GraphPad Prism to determine the EC50 of binding."}, "[3]": {"target": "T3, S1P1 R120A/E121A (Homo sapiens, UniProt P21453, E121A/R120A)", "T3 construct": "expressed in transfected cells; host or cells: CHOK1", "T3 sequence (P21453 whole entry R120A/E121A)": "as the sequence (P21453 whole entry W269L) above, with R120A, E121A, L269W counted along it", "test": "Phosphorylated-ERK1/2 In Cell Western, S1P1 R120A/E121A mutant in CHOK1 cells", "description": "as §1, §2, §3"}, "[4]": {"target": "T4, S1P1/EDG1 (Homo sapiens, UniProt P21453)", "T4 sequence (P21453 whole entry)": "as the sequence (P21453 whole entry W269L) above, with L269W counted along it", "test": "S1P1 CRE-bla CHOK1 reporter assay, inhibition of Forskolin induced cAMP", "conditions": "agonist activity range, S1P1 CRE-bla CHOK1, 2 μM Forskolin; read-out: S1P1 ACTIVITY", "method_in_brief": "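Read-out is a FRET β-lactamase substrate (2 h, room temperature) after 4 h, 37 °C compound treatment under 2 μM Forskolin in stable S1P1-transfected CRE-bla CHO-K1 cells. Ten-point curves; non-linear regression gives EC50 for inhibition of Forskolin-stimulated cAMP.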"}, "[5]": {"target": "T4, S1P1/EDG1", "test": "Phosphorylated-ERK1/2 In Cell Western, wild type S1P1 in CHOK1 cells", "description": "CHOK1 cells were transfected using Fugene (Roche). Stably expressing mixed pools were selected with 2 mg/ml G418. Expression of functional S1P1/EDG1 receptor was confirmed by cell surface FACS with a S1P1 antibody (R&D Systems, clone 218713). Stable pools were seeded at 40,000 cells/well in a clear bottom 96-well tray, and incubated at 37° C. in 5% CO2 for 18 hrs. Cells were serum-starved in FreeStyle 293 medium (Invitrogen) for 4-6 h, then incubated for 5 min with a dose response of compound, in duplicate. Cells were fixed with 4% paraformaldehyde for 20 min, permeabilized with 0.1% Triton X-100 in PBS (4×5 min washes) and blocked for 1 h in Odyssey Blocking Buffer (LI-COR). All incubations were at room temperature. Cells were incubated for 18 h at 4° C. in Rabbit anti-Phospho-ERK1/2 (Cell Signaling #4377) and Mouse anti-ERK1/2 (Cell Signaling #9107) both diluted 1:800 in Odyssey Blocking Buffer. Plates were washed with 0.1% Tween-20 in PBS and then incubated with Odyssey Blocking Buffer containing IRDye 680-labeled goat anti-rabbit antibody (#926-32221; diluted 1/500) and IRDye 800CW-labeled goat anti-mouse antibody (#926-32210; diluted 1/1000). Plates were washed with 0.1% Tween-20 in PBS, all liquid was removed from the wells and the plates were scanned using a LICOR Odyssey scanner. […] Data was analyzed by non-linear regression using GraphPad Prism to determine the EC50 of binding."}}, "data": [{"smiles": "CC(C)Oc1ccc(-c2nc(-c3cccc4c3CCC4NCCC(=O)O)no2)cc1C#N", "note": "(racemic) [Compound 38]", "values": [{"measurement": "Effect of mutation on binding of compound (in words)", "setting": "[1]", "value": "abolishes binding"}, {"measurement": "Effect of mutation on binding of compound (in words)", "setting": "[2]; S1P1 N101A", "value": "had no effect on binding"}, {"measurement": "Fold change in EC50 compared to wild type S1P1", "setting": "[2]; S1P1 variant N101A, phospho-ERK1/2", "value": 2}, {"measurement": "Effect of mutation on binding of compound (in words)", "setting": "[3]; S1P1 R120A/E121A", "value": "diminishes binding"}, {"measurement": "Fold change in EC50 compared to wild type S1P1", "setting": "[3]; S1P1 variant R120A/E121A, phospho-ERK1/2", "value": 11}, {"measurement": "EC50", "setting": "[4]", "value": "< 0.05", "unit": "nM"}, {"measurement": "Phosphorylation of ERK1/2 by S1P1 agonist (in words)", "setting": "[5]", "value": "induce phosphorylation of ERK1/2"}]}]}
